We go through seven compounds from patent publication US10264789B2, “Rodentia animal repellent” (SUMITOMO CHEMICAL COMPANY, LIMITED, priority 2014, dated 2019).

The test system of the assay is female mouse (Jcl: ICR lineage). Put plainly: Repellent test (Experimental Example 1, two-section feed choice apparatus). It counts as in vivo. The settings on record: drug amount 0.5 g on one sheet of filter paper. As to the method:
Experimental Example 1 (Test Animal: Mouse)
The repellent test was performed using the repellent test apparatus described in FIG. 1. The apparatus has a residential section for the test animal in the center part, test section 1 and test section 2 setting food on both ends, test section 1 and the residential section are connected by a cylindrical path (diameter 0.05 m, length 2.08 m), and test section 2 and the residential section are also connected by a cylindrical path. The test section 1 and test section 2 are resin cuboid shape (0.68 m×0.40 m×0.32 m) containers, and the connection parts with the paths are opened. The residential section is also a resin cuboid shape (0.28 m×0.45 m×0.16 m), and the upper part made of an iron net so that the air can be taken in. An openable door is set in the connection part between the residential section and the path. Chips for floor:clean chip SP (manufactured by CLEA Japan, Inc.) were spread all over the bottom part of the residential section.
An acclimation operation was performed before the repellent test to make the test animal experienced with the test apparatus.
A weighed feed (solid food CE-2 for breeding and raising, manufactured by CLEA Japan, Inc.) (initial feed weight about 10 g) was set in each of test section 1 and test section 2, one female mouse (Jcl: ICR lineage) was placed in the residential section. One day later, the feed remaining in both test sections was weighed, and the eating rate was calculated by the following formula. When the eating rates of the both test sections are considerably different, the feed was changed to a new one, and the acclimation operation was repeated for several days until the eating rate was stabilized, and the eating rates of the both test sections became almost equivalent. eating rate (%)=100×amount eaten (g)/initial feed weight (g) <Repellent Test>
After completion of the acclimation operation, the same feed (solid food CE-2 for breeding and raising, manufactured by CLEA Japan, Inc.) (about 10 g) was placed in the both test sections. […] After 1 hr from setting the filter paper, the door of the connection part between the residential section and the path was closed, and thereafter the door was opened. After lapse of one day from the start of the test, the feed remaining in the both test sections was weighed. When the test was continued for not less than one day, the feed in the both test sections was exchanged every other day, and the remaining feed was weighed every day.
The repellent rate was calculated by the following formula. The test section where the filter paper (diameter 70 mm, manufactured by Advantec Toyo Kaisha, Ltd.) treated with the test compound was set was taken as the treatment section, and the test section where the filter paper was not set was taken as the non-treatment section. repellent rate (%)=100×(amount eaten in non-treatment section−amount eaten in treatment section)/(amount eaten in non-treatment section+amount eaten in treatment section)

Turning to `Cc1nc2c(C)cccc2s1` [present compound 13, 2,4-dimethyl-1,3-benzothiazole], the “repellent rate (%)” value by setting is: (number of observation days 1) 100%; (number of observation days 3) 100%.

`c1ccc(-c2nc3ccccc3s2)cc1` [comparison compound B, reference compound]: the “repellent rate (%)” value (number of observation days 1) turned out to be 0%. Same read-out and setting: for `FC(F)(F)c1nc2ccccc2s1` [present compound 6, 2-trifluoromethyl-1,3-benzothiazole] the value was 100%; for `Sc1nc2ccccc2s1` [comparison compound A, reference compound], 0%; for `c1ccc2scnc2c1` [Comparison compound C, reference compound], 4%. `CC1(C)Nc2ccccc2S1` [present compound 14, 2,2-dimethyl-2,3-dihydro-1,3-benzothiazole]: the “repellent rate (%)” value was 100% (number of observation days 1) and 92% (number of observation days 3). Turning to `CC(C)Cc1nc2ccccc2s1` [present compound 5, 2-isobutyl-1,3-benzothiazole], for the setting “number of observation days 1”, the “repellent rate (%)” value amounted to 94%.
